Source: PubChem BioAssay AID328 (DTP/NCI, 2004)
Several values for one entry are separate records, joined by “and”; a condition that tells them apart may be missing. Identical values can stand only once. Toxic doses and inconclusive results are not listed.

Tested on: BDF1 mice, P388 leukemia ip, median survival T/C
Assay: NCI In Vivo Anticancer Drug Screen. Data for tumor model P388 Leukemia (intraperitoneal) in B6D2F1 (BDF1) mice
Details: endpoint: median survival time, higher = longer survival
Outline: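 Vehicle-dosed animals serve as the reference; survival of compound-dosed, tumour-implanted mice is divided by it.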

[1] = dose: 50.0 mg/kg/injection, schedule: Q01DX009 (ip), vehicle: saline with Tween-80
[2] = dose: 100.0 mg/kg/injection, schedule: Q01DX009 (ip), vehicle: saline with Tween-80
[3] = dose: 200.0 mg/kg/injection, schedule: Q01DX009 (ip), vehicle: saline with Tween-80
[4] = dose: 100.0 mg/kg/injection, schedule: Q04DX003 (ip), vehicle: saline with Tween-80
[5] = dose: 200.0 mg/kg/injection, schedule: Q04DX003 (ip), vehicle: saline with Tween-80
[6] = dose: 400.0 mg/kg/injection, schedule: Q01DX009 (ip), vehicle: saline with Tween-80
[7] = dose: 400.0 mg/kg/injection, schedule: Q04DX003 (ip), vehicle: saline with Tween-80
[8] = dose: 25.0 mg/kg/injection, schedule: Q04DX003 (ip), vehicle: saline
[9] = dose: 50.0 mg/kg/injection, schedule: Q04DX003 (ip), vehicle: saline
[10] = dose: 100.0 mg/kg/injection, schedule: Q01DX009 (ip), vehicle: Klucel (hydroxypropylcellulose) (HPC)
[11] = dose: 100.0 mg/kg/injection, schedule: Q04DX003 (ip), vehicle: Klucel (hydroxypropylcellulose) (HPC)
[12] = dose: 200.0 mg/kg/injection, schedule: Q01DX009 (ip), vehicle: Klucel (hydroxypropylcellulose) (HPC)
[13] = dose: 200.0 mg/kg/injection, schedule: Q04DX003 (ip), vehicle: Klucel (hydroxypropylcellulose) (HPC)

O=C1C=C(C2OC(CO)C(O)C2O)C(=O)N1 (stereo not given)
T/C (dose: 0.2 mg/kg/injection, schedule: Q01DX010 (ip), vehicle: saline): 110 % of control | T/C (dose: 0.37 mg/kg/injection, schedule: Q01DX001 (ip), vehicle: saline): 95 % of control | T/C (dose: 0.5 mg/kg/injection, schedule: Q01DX010 (ip), vehicle: saline): 110 % of control | T/C (dose: 0.75 mg/kg/injection, schedule: Q01DX001 (ip), vehicle: saline): 91 % of control | T/C (dose: 1.5 mg/kg/injection, schedule: Q01DX001 (ip), vehicle: saline): 95 % of control | T/C (dose: 2.0 mg/kg/injection, schedule: Q01DX010 (ip), vehicle: saline): 150 % of control | T/C (dose: 3.0 mg/kg/injection, schedule: Q01DX001 (ip), vehicle: saline): 110 % of control | T/C (dose: 6.0 mg/kg/injection, schedule: Q01DX001 (ip), vehicle: saline): 100 % of control | T/C (dose: 8.0 mg/kg/injection, schedule: Q01DX010 (ip), vehicle: saline): 150 % of control and 155 % of control and 157 % of control | T/C (dose: 12.0 mg/kg/injection, schedule: Q01DX001 (ip), vehicle: saline): 100 % of control | T/C (dose: 16.0 mg/kg/injection, schedule: Q01DX010 (ip), vehicle: saline): 121 % of control

NC1CC2C=CCC(C1)C2 (stereo not given)
T/C (dose: 37.5 mg/kg/injection, schedule: Q01DX001 (ip), vehicle: saline): 95 % of control | T/C (dose: 75.0 mg/kg/injection, schedule: Q01DX001 (ip), vehicle: saline): 100 % of control | T/C (dose: 150.0 mg/kg/injection, schedule: Q01DX001 (ip), vehicle: saline): 100 % of control

O=[N+]([O-])c1ccc(N2CCCCCC2)c2c1no[n+]2[O-]
T/C (dose: 15.0 mg/kg/injection, schedule: Q01DX009 (ip), vehicle: saline with Tween-80): 90 % of control | T/C (dose: 30.0 mg/kg/injection, schedule: Q01DX009 (ip), vehicle: saline with Tween-80): 95 % of control | T/C (dose: 60.0 mg/kg/injection, schedule: Q01DX009 (ip), vehicle: saline with Tween-80): 95 % of control

CC(C)c1cccc(C(C)C)c1NC(=O)N1CCOCC1
T/C [1]: 100 % of control | T/C [2]: 93 % of control | T/C [3]: 90 % of control

CC1(C)c2ccccc2C(C)(O)c2ccccc21
T/C [2]: 100 % of control | T/C [4]: 100 % of control | T/C [3]: 100 % of control | T/C [5]: 96 % of control | T/C [6]: 112 % of control | T/C [7]: 96 % of control

Nc1ccc2cc(Cl)ccc2c1
T/C [2]: 90 % of control

CC(=O)N1c2cc3ccccc3cc2N(C(C)=O)c2cc3ccccc3cc21
T/C [2]: 102 % of control | T/C [3]: 97 % of control | T/C [6]: 117 % of control

CCC(SC(CC(=O)O)C(=O)O)C(=O)O (stereo not given)
T/C (dose: 12.5 mg/kg/injection, schedule: Q01DX001 (ip), vehicle: saline with Tween-80): 100 % of control | T/C (dose: 25.0 mg/kg/injection, schedule: Q01DX001 (ip), vehicle: saline with Tween-80): 99 % of control | T/C (dose: 50.0 mg/kg/injection, schedule: Q01DX001 (ip), vehicle: saline with Tween-80): 90 % of control

CSc1ccc2c(c1)C(N1CCN(C)CC1)Cc1ccccc1S2 (stereo not given)
T/C (dose: 6.25 mg/kg/injection, schedule: Q04DX003 (ip), vehicle: saline): 113 % of control | T/C [8]: 114 % of control | T/C [9]: 107 % of control

NC1CCCCC1.[O]=[Cr](=[O])([OH])[OH]
T/C (dose: 6.25 mg/kg/injection, schedule: Q01DX009 (ip), vehicle: saline): 100 % of control | T/C (dose: 12.5 mg/kg/injection, schedule: Q01DX009 (ip), vehicle: saline): 90 % of control

CC(C)(C)C1CNP(=O)(c2ccccc2)OC1 (stereo not given)
T/C (dose: 50.0 mg/kg/injection, schedule: Q01DX005 (ip), vehicle: saline with Tween-80): 99 % of control | T/C (dose: 100.0 mg/kg/injection, schedule: Q01DX005 (ip), vehicle: saline with Tween-80): 101 % of control | T/C (dose: 200.0 mg/kg/injection, schedule: Q01DX005 (ip), vehicle: saline with Tween-80): 100 % of control

N#CCCC1(CCC#N)c2ccccc2-c2ccccc21
T/C [10]: 92 % of control | T/C [11]: 96 % of control | T/C [12]: 92 % of control | T/C [13]: 112 % of control | T/C (dose: 400.0 mg/kg/injection, schedule: Q01DX009 (ip), vehicle: Klucel (hydroxypropylcellulose) (HPC)): 92 % of control | T/C (dose: 400.0 mg/kg/injection, schedule: Q04DX003 (ip), vehicle: Klucel (hydroxypropylcellulose) (HPC)): 92 % of control

CC[C@H](CC[C@@H](C)[C@H]1CC[C@H]2[C@@H]3CC=C4C[C@@H](OC(=O)CSC(CC(=O)O)C(=O)O)CC[C@]4(C)[C@H]3CC[C@]12C)C(C)C (stereo not given in full)
T/C [10]: 109 % of control | T/C [12]: 104 % of control

CC12OC(=O)CC1CC(=O)O2 (stereo not given)
T/C (dose: 50.0 mg/kg/injection, schedule: Q01DX001 (ip), vehicle: saline): 95 % of control | T/C (dose: 100.0 mg/kg/injection, schedule: Q01DX001 (ip), vehicle: saline): 95 % of control | T/C (dose: 200.0 mg/kg/injection, schedule: Q01DX001 (ip), vehicle: saline): 105 % of control

O=C(Oc1cc(Cl)ccc1Cl)c1ccccc1
T/C [1]: 122 % of control | T/C [2]: 89 % of control | T/C [6]: 89 % of control

COc1cccc(CCCC(=O)C(C)(C)S(C)=O)c1 (stereo not given)
T/C [1]: 103 % of control | T/C [2]: 95 % of control | T/C [3]: 103 % of control

CNC(=S)N(N)c1ccccc1
T/C (dose: 50.0 mg/kg/injection, schedule: Q01DX009 (ip), vehicle: Klucel (hydroxypropylcellulose) (HPC)): 108 % of control | T/C [10]: 94 % of control | T/C [11]: 90 % of control | T/C [12]: 95 % of control | T/C [13]: 95 % of control

O=[N+]([O-])c1ccc(N=Cc2ccc3c(c2)OCO3)cc1
T/C (dose: 100.0 mg/kg/injection, schedule: Q01DX001 (ip), vehicle: Klucel (hydroxypropylcellulose) (HPC)): 100 % of control | T/C (dose: 200.0 mg/kg/injection, schedule: Q01DX001 (ip), vehicle: Klucel (hydroxypropylcellulose) (HPC)): 95 % of control | T/C (dose: 400.0 mg/kg/injection, schedule: Q01DX001 (ip), vehicle: Klucel (hydroxypropylcellulose) (HPC)): 95 % of control

C#CCOCC(CCl)OC(=O)Nc1ccccc1 (stereo not given)
T/C (dose: 25.0 mg/kg/injection, schedule: Q01DX009 (ip), vehicle: saline): 95 % of control | T/C (dose: 50.0 mg/kg/injection, schedule: Q01DX009 (ip), vehicle: saline): 104 % of control | T/C (dose: 50.0 mg/kg/injection, schedule: Q04DX003 (ip), vehicle: saline with Tween-80): 87 % of control | T/C (dose: 100.0 mg/kg/injection, schedule: Q01DX009 (ip), vehicle: saline): 104 % of control | T/C [4]: 95 % of control | T/C (dose: 200.0 mg/kg/injection, schedule: Q01DX009 (ip), vehicle: saline): 109 % of control | T/C [7]: 100 % of control

CCCNC1=C(N2CC2)C(=O)C(NCCC)=C(N2CC2)C1=O
T/C (dose: 1.5 mg/kg/injection, schedule: Q01DX009 (ip), vehicle: saline): 161 % of control | T/C (dose: 3.0 mg/kg/injection, schedule: Q01DX009 (ip), vehicle: saline): 166 % of control and 203 % of control | T/C (dose: 6.0 mg/kg/injection, schedule: Q01DX009 (ip), vehicle: saline): 251 % of control and 208 % of control

CC(C)CCCCc1c[nH]c(=O)[nH]c1=O
T/C [4]: 100 % of control | T/C [5]: 100 % of control | T/C [7]: 100 % of control

Clc1cccc(N2CN(c3cccc(Cl)c3)CN(c3cccc(Cl)c3)C2)c1
T/C (dose: 100.0 mg/kg/injection, schedule: Q01DX001 (ip), vehicle: saline with Tween-80): 90 % of control | T/C (dose: 200.0 mg/kg/injection, schedule: Q01DX001 (ip), vehicle: saline with Tween-80): 87 % of control | T/C (dose: 400.0 mg/kg/injection, schedule: Q01DX001 (ip), vehicle: saline with Tween-80): 91 % of control

Nc1nc(=O)n(C2OC(CO)C(O)C2O)c2nc(I)[nH]c12 (stereo not given)
T/C (dose: 12.5 mg/kg/injection, schedule: Q04DX003 (ip), vehicle: saline): 97 % of control | T/C [8]: 97 % of control | T/C [9]: 105 % of control | T/C (dose: 100.0 mg/kg/injection, schedule: Q04DX003 (ip), vehicle: saline): 108 % of control | T/C (dose: 200.0 mg/kg/injection, schedule: Q04DX003 (ip), vehicle: saline): 111 % of control

CC1OC(n2ccc(NC(=O)c3ccc(NC(=O)C(C)(N)CO)cc3)nc2=O)CC(O)C1OC1OC(C)C(N(C)C)C(O)C1O (stereo not given)
T/C (dose: 2.5 mg/kg/injection, schedule: Q01DX009 (ip), vehicle: saline): 106 % of control | T/C (dose: 5.0 mg/kg/injection, schedule: Q01DX009 (ip), vehicle: saline): 103 % of control | T/C (dose: 10.0 mg/kg/injection, schedule: Q01DX009 (ip), vehicle: saline): 111 % of control
